For series [1], the system named is ADP-induced platelet aggregation in platelet rich plasma. Put plainly: Inhibition of ADP-Induced ex-vivo Platelet Aggregation. Type of series: in vivo, mongrel dogs. As to conditions: dog, dose 5 mg/kg oral. From the text:
The Platelet Aggregation Assay is based on that described in Blood 66 (4), 946-952 (1985). The Fibrinogen-Binding Assay is essentially that of Ruggeri, Z. M., et al., Proc. Natl. Acad. Sci. USA 83, 5708-5712 (1986) and Plow, E. F., et al., Proc. Natl. Acad. Sci., USA 82, 8057-8061 (1985). The Inhibition of ADP-Induced ex-vivo Platelet Aggregation assay is based on that of Zucker, "Platelet Aggregation Measured by the Photoelectric Method", Methods in Enzymology 169, 117-133 (1989).
Inhibition of ADP-Induced ex-vivo Platelet Aggregation
Control blood samples are obtained 5-10 minutes prior to administration of a test compound in mongrel dogs weighing from 10 to 20 Kg. The compound is administered intragasticly, via aqueous gavage, or orally, via gelatin capsule. […]
The blood samples are centrifuged at 1000 rpm for 10 minutes to obtain platelet rich plasma (PRP). […] Platelet count in the PRP is determined by using a Coulter Counter (Coulter Electronics, Hialeah, Fla.). […] Platelet aggregation is monitored spectrophotometrically utilizing a light transmission aggregometer (Bio/Data Platelet Aggregation Profiler, Model PAP-4, Bio/Data Corp., Horsham, Pa.). For the testing of a compound, the rate of change (slope) of light transmittance and the maximum light transmittance (maximum aggregation) is recorded in duplicate. […]

Series [2] in a line: Moisture sorption isotherms. Type of series: physicochemical. The settings on record: 25° C. (FIG. 9). Here is the method:
Moisture Sorption Isotherms of hygroscopic and non-hygroscopic crystalline forms of N-[N-[N-(4-piperdin-4-yl)butanoyl)-N-ethylglycyl]-(L)-aspartyl]-(L)-β-cyclohexylalanine amide are obtained on a VTI MB300G moisture balance. The experiments are conducted either by subjecting approximately 15 mg of the subject crystalline form to increasing and decreasing steps of % RH and following the weight gain (at each equilibrium step) as a function of % RH (FIG. 9) or by holding the subject crystalline form at constant humidity and following the weight gain as a function of time.

A short description of series [3]: Isothermal microcalorimetry of solid state form conversion. Type of series: physicochemical. As to conditions: 60° C. (FIG. 8). Here is the method: Isothermal microcalorimetry experiments on hygroscopic and non-hygroscopic crystalline forms of N-[N-[N-(4-piperdin-4-yl)butanoyl)-N-ethylglycyl]-(L)-aspartyl]-(L)-β-cyclohexylalanine amide are performed on a Thermometric® Thermal Activity Monitor (TAM). Solid state conversions of the different crystalline forms are studied by exposing the forms to different humidities or solvent vapors at different temperatures. The saturated salt solutions used to obtain different humidities were: KCl (80% RH), NaCl (75% RH), and NaBr (65% RH). Approximately 100 mg quantities of the forms are weighed into a TAM glass ampule and a microhygrostate containing a saturated salt solution (with excess solid) or an organic solvent is placed inside the ampule. The ampule is sealed, equilibrated to the temperature of the experiment, and lowered into the measuring position in the TAM. An identical system containing washed sea sand, in place of the form subject to testing, is placed on the reference side. Output power ([…]) is measured as a function of time (FIGS. 6-8).

Molecules are shown by their SMILES.

As to `CCN(CC(=O)N[C@@H](CC(=O)O)C(=O)N[C@@H](CC1CCCCC1)C(N)=O)C(=O)CCCC1CCNCC1` [Example 15], the “% Inhibition of ex-vivo Platelet Aggregation After Oral Administration, 24 h” value in series [1] turned out to be 5%.
`CCN(CC(=O)N[C@@H](CC(=O)O)C(=O)N[C@@H](CC1CCCCC1)C(N)=O)C(=O)CCCC1CCNCC1` [hygroscopic form]: in series [2], the “% weight gain vs. % RH” value is given as “picks up more water than the non-hygroscopic form as the RH increases”. Also, the “conversion to non-hygroscopic form at 100% RH” value in series [3] is “without the liquification”.

Source of the values: patent publication US5780590A, “Antithrombotic azacycloalkylalkanoyl peptides and pseudopeptides” (Rhone-Poulenc Rorer Pharmaceuticals Inc., priority 1996, dated 1998).
